Like-named read-outs stand apart in the source and are kept apart here.
Target: PARP1 (poly ADP-ribose polymerase 1) (Homo sapiens, UniProt P09874)
Assay: PARP1 enzymatic ELISA (histone-coated plates, biotinylated NAD+, HRP luminescence)
Type: biochemical

Chain of PARP1 (poly ADP-ribose polymerase 1) (P09874 2-1014): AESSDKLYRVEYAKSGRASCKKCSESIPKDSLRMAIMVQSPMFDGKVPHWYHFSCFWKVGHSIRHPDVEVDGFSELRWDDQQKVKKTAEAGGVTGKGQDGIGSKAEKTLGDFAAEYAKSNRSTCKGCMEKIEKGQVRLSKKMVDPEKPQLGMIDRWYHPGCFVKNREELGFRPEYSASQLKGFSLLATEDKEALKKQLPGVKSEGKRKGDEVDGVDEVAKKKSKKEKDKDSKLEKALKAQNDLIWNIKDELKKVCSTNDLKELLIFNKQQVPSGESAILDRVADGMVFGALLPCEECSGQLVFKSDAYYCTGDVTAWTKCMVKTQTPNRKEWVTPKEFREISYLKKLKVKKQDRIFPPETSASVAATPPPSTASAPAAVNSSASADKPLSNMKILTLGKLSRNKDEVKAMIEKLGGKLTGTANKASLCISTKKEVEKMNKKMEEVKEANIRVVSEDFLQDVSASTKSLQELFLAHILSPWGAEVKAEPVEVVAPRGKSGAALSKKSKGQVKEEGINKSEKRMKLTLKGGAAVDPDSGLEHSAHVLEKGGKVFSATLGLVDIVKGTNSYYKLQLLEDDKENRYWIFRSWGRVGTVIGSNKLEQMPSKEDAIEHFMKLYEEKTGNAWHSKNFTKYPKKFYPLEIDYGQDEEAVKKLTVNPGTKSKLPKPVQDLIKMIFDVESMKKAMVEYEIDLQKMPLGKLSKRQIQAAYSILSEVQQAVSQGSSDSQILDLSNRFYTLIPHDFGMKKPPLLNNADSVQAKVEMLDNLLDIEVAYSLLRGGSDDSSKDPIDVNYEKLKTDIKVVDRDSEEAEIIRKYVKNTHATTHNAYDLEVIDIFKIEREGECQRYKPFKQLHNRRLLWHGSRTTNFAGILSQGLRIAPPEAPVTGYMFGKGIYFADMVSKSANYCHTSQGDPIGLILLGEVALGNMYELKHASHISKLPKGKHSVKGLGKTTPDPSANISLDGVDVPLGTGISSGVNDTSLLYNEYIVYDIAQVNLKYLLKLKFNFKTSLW

IC50 (read-out: IC50) [µM] | SMILES | IC50 [µM]
67.2 ± 7.6 | COc1ccc2ccc(=O)oc2c1CC(O)C(C)(C)O (stereo not shown) [compound 4, meranzin hydrate] | –
– | COc1c2ccoc2nc2c(O)cccc12 [compound 3, 8-hydroxy dictanmnine] | 44.9 ± 8.4
– | COc1ccc2cc3[n+](cc2c1OC)CCc1cc(O)c(O)cc1-3 [compound 2, demethyleneberberine] | 2 ± 0.8
– | COc1ccc2ccc(=O)oc2c1CC=C(C)C [compound 5, osthol] | 76.5 ± 12.4
